Data from US4534980A, “Antiinflammatory and antipyretic cream” (Hokuriku Pharmaceutical Co., Ltd., priority 1984, dated 1985).

Experiments:
[1] = tested on: carrageenin induced paw edema; conditions: 5 mg/kg, Folia Pharmacologica Japonica vol. 70, page 543 (1974); cited from earlier work
[2] = tested on: carrageenin induced paw edema; assay: Antiinflammatory effect on carrageenin induced paw edema (Experiments 3, 8); type: in vivo, Wistar male rats; conditions: inhibition rate in oral administration = 1.00
Method: The antiinflammatory effect of the test compositions in Experiment 1 was determined by an effect on carrageenin induced paw edema. The experiment was performed using 8 Wistar male rats weighing approximately 170 g per one group. After previously measuring the volume of left hind paw, 50 mg each of the test compositions (stored at room temperature for one month after the preparation) was applied twice, left hind paw of the rat, 2 hours and 1 hour before injection of an inflammatory agent. As the inflammatory agent, 0.1 ml of a 1% carrageenin solution was subcutaneously injected at the left hind paw. The volume of the left hind paw was measured 3 hours after and a swelling was determined based on the volume before injecting the inflammatory agent. A group in which no test composition was applied was made a control group and the inhibition rate was calculated based thereon as follows. [formula]
The antiinfammatory effect was examined with the test compositions of Experiment 7, in a manner similar to Experiment 3.

For `CC(C(=O)O)c1cccc(C(=O)c2ccccc2)c1` (centres unmarked) [Ketoprofen], the “Inhibition Rate, Oral Administration (Table 3)” value [1] is given as 45.9% and the “Potency Ratio (Table 3)” value [2] is given as 1.00.
